Assays:
Format in all cases: biochemical, Amycolatopsis sp. ATCC 39116
GcoA variant F169S [1] = target: T1, GcoA variant F169S (Amycolatopsis sp., UniProt P0DPQ7, F169S); assay: NADH consumption assay (specific activity) with GcoB; conditions: saturating (200 µM) substrate, pH 7.5, 25°C
T1 construct: GST (N, cleaved yes); made in house; host or cells: E. coli Rosetta 2 (DE3)

GcoA variant F169H [2] = target: T2, GcoA variant F169H (Amycolatopsis sp., UniProt P0DPQ7, F169H); assay: as above; conditions: saturating (200 µM) substrate, pH 7.5, 25°C
T2 construct: GST (N, cleaved yes); made in house; host or cells: E. coli Rosetta 2 (DE3)
T2 sequence (P0DPQ7 whole entry F169H): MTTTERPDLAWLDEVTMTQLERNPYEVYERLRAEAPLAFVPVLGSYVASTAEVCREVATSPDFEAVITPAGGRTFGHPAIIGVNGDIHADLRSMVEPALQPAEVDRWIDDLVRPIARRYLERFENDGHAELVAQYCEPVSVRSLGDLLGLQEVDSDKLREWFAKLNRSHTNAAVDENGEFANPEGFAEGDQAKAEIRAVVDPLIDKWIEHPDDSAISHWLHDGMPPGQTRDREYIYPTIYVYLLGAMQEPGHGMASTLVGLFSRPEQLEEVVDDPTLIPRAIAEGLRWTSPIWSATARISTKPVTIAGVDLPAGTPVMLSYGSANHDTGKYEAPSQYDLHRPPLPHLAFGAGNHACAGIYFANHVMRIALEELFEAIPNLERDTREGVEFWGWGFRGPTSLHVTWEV

GcoA variant F169L [3] = target: T3, GcoA variant F169L (Amycolatopsis sp., UniProt P0DPQ7, F169L); assay: as above; conditions: saturating (200 µM) substrate, pH 7.5, 25°C
T3 construct: GST (N, cleaved yes); made in house; host or cells: E. coli Rosetta 2 (DE3)
T3 sequence (P0DPQ7 whole entry F169L): as the sequence (P0DPQ7 whole entry F169H) above, with H169L counted along it

WT GcoA = target: T4, WT GcoA (Amycolatopsis sp., UniProt P0DPQ7); assay: End-point coupling assay (formaldehyde produced per NADH consumed); conditions: molar ratio formaldehyde produced per NADH consumed, 200 µM NADH, 200 µM aromatic substrate
T4 construct: GST (N, cleaved yes); made in house; host or cells: E. coli Rosetta 2 (DE3)
T4 sequence (P0DPQ7 1-407): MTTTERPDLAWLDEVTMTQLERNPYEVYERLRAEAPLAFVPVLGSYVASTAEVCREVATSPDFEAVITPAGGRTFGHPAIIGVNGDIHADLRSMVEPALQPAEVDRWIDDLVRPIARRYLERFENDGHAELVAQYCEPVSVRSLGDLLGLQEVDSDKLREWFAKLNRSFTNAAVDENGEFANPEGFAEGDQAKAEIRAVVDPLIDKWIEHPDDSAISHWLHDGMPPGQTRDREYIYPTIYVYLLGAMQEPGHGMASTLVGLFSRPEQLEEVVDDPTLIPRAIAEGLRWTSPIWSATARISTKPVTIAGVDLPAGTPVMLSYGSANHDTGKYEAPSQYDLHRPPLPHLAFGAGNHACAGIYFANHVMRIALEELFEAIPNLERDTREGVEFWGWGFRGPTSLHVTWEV

GcoA variant F169H [4] = target: T2, GcoA variant F169H; assay: as above; conditions: molar ratio formaldehyde produced per NADH consumed, 200 µM NADH, 200 µM aromatic substrate
Description: (§1) The [formaldehyde] produced on reaction with GcoA-F169A and substrates was determined using a colorimetric assay with tryptophan ([28], [42]); details are provided in SI Appendix. […]
(§2) vi = Vmax[S]/(KM + [S]) (4) […]
(§3) Formaldehyde determination. A colorimetric assay using tryptophan can be used to quantify the amount of formaldehyde produced in F169 GcoA/B reactions with guaiacol, syringol, or 3MC. 0.2 µM each of F169 GcoA mutants and GcoB were dissolved in air-saturated buffer (25 mM HEPES, 50 mM NaCl) in a cuvette at pH 7.5, 25 °C. 100 µg/mL catalase was added to each reaction to capture any H2O2 formed during the uncoupled reaction. 200 μM NADH was added and the background rate recorded. 100 (guaiacol, syringol, or 3MC) or 200 (syringol) μM of substrate was then added and the reaction monitored until there was no more change, due to either substrate, NADH or O2 depletion, whichever occurred first. 200 µL of the reaction was then quenched by adding 200 µL of a 0.1% tryptophan solution in 50% ethanol and 200 µL of 90% sulfuric acid. Upon thorough mixing, 40 µL of 1% FeCl3 was added. The solution was then incubated in a heating block for 90 min at 70 °C. After cooling, the absorbance was read at 575 nm and the [formaldehyde] calculated by using ε575 nm = 4.2 mM-1 cm-1, obtained with formaldehyde as a standard (1). A negative control included everything but the substrate and was used as a baseline. […]
(§4) The reaction of each aliquot was immediately quenched with 12.5
(§5) μL saturated ammonium sulfate, 7% v/v H2SO4 (pH 2.0) prior to loading onto the HPLC column. [Substrate] disappearance was referenced to GcoA (0.2 µM) and fit to a linear line to determine specific activity.
(§6) Data analysis. The consumption of NADH and subsequent production of formaldehyde and aromatic product were measured in triplicate and the error reported as ±1 standard deviation. To determine the statistical significance between NADH consumption and the products produced, the p-value was determined for all runs containing guaiacol, syringol, and 3MC. These values were calculated using two degrees of freedom, a tail value of two, and assuming a t-statistical value for unequal variances.
(§7) Detection of H2O2 via horseradish peroxidase (HRP) and Amplex Red assay. The reaction between 100 μM guaiacol or 3MC with 0.2 μM F169A/GcoB and 100 μM NADH in air-saturated buffer (25 mM HEPES, 50 mM NaCl, pH 7.5) was monitored continuously in a quartz cuvette, using the NADH consumption assay described above. The same thing was done for syringol, but with either 100 or 200 μM NADH. When there was no longer any change in the spectra, e.g., the reaction was completed, 100 μL was removed from the cuvette and pipetted into a 96-well microplate. A 5 mL solution containing 50 μL of 10 mM Amplex Red (prepared in DMSO and stored at -20 °C) and 100 μL of 10 U/mL HRP was made up in the above buffer. 100 μL of this was added to each of the wells with each reaction sample. The plate was incubated in the dark at room temperature for 30 min, at which point the absorbance at […]
(§8) Table S1. Rate of substrate disappearance or product appearance (specific activity) for F169A.
(§9) Substrate NADH disappearance aromatic substrate disappearance KD (µM) […]
(§10) Table S2. Rates of substrate disappearance and coupling efficiencies for reactions catalyzed by the GcoA-F169 variants.
(§11) GcoA Specific activity Coupling Specific activity Coupling Specific activity (μmol Coupling variant (μmol sec-1 μmol-1 efficiency (μmol sec-1 μmol-1 efficiency sec-1 μmol-1 GcoA)a efficiency GcoA)a (%)b GcoA)a (%)b (%)b […]
(§12) aNADH consumption was monitored continuously over time via UV/vis and quantifying with ε340 = 6.22 mM-1 cm-1 at 25°C, 25 mM HEPES, 50 mM NaCl, pH 7.5 and saturating (200 µM) concentrations of all substrates (syringol, guaiacol, and 3MC). bCalculated as the molar ratio of formaldehyde produced per NADH consumed in a fixed-time assay. Assay conditions: 0.2 µM […]

GcoA variant F169I = target: T5, GcoA variant F169I (Amycolatopsis sp., UniProt P0DPQ7, F169I); assay: as above; conditions: molar ratio formaldehyde produced per NADH consumed, 200 µM NADH, 200 µM aromatic substrate
T5 construct: GST (N, cleaved yes); made in house; host or cells: E. coli Rosetta 2 (DE3)
T5 sequence (P0DPQ7 whole entry F169I): as the sequence (P0DPQ7 whole entry F169H) above, with H169I counted along it
Description: as §1, §2, §3, §4, §5, §6, §7, §8, §9, §10, §11, §12

GcoA variant F169L [5] = target: T3, GcoA variant F169L; assay: as above; conditions: molar ratio formaldehyde produced per NADH consumed, 200 µM NADH, 200 µM aromatic substrate
Description: as §1, §2, §3, §4, §5, §6, §7, §8, §9, §10, §11, §12

GcoA variant F169S [6] = target: T1, GcoA variant F169S; assay: as above; conditions: molar ratio formaldehyde produced per NADH consumed, 200 µM NADH, 200 µM aromatic substrate
Description: as §1, §2, §3, §4, §5, §6, §7, §8, §9, §10, §11, §12

GcoA variant F169V = target: T6, GcoA variant F169V (Amycolatopsis sp., UniProt P0DPQ7, F169V); assay: as above; conditions: molar ratio formaldehyde produced per NADH consumed, 200 µM NADH, 200 µM aromatic substrate
T6 construct: GST (N, cleaved yes); made in house; host or cells: E. coli Rosetta 2 (DE3)
T6 sequence (P0DPQ7 whole entry F169V): as the sequence (P0DPQ7 whole entry F169H) above, with H169V counted along it
Description: as §1, §2, §3, §4, §5, §6, §7, §8, §9, §10, §11, §12

T1 sequence (P0DPQ7 whole entry F169S): as the sequence (P0DPQ7 whole entry F169H) above, with H169S counted along it

Row | Structure (SMILES) | Specific activity (GcoA variant F169S [1]) | Specific activity (GcoA variant F169H [2]) | Specific activity (GcoA variant F169L [3]) | Coupling efficiency (WT GcoA) | Coupling efficiency (GcoA variant F169H [4]) | Coupling efficiency (GcoA variant F169I) | Coupling efficiency (GcoA variant F169L [5]) | Coupling efficiency (GcoA variant F169S [6]) | Coupling efficiency (GcoA variant F169V)
1 | COc1cccc(O)c1O [3MC, 3-methoxycatechol] | 6.0 ± 0.8 μmol sec-1 μmol-1 GcoA | 4.3 ± 0.4 μmol sec-1 μmol-1 GcoA | 0.57 ± 0.2 μmol sec-1 μmol-1 GcoA | 78 ± 3% | 28 ± 20% | 10 ± 9% | 5.0 ± 4% | 67 ± 8% | 40 ± 3%
2 | COc1ccccc1O [guaiacol, 2-methoxyphenol] | 5.7 ± 0.8 μmol sec-1 μmol-1 GcoA | 7.9 ± 3 μmol sec-1 μmol-1 GcoA | 4.5 ± 0.3 μmol sec-1 μmol-1 GcoA | 110 ± 10% | 103 ± 10% | 41 ± 10% | 73 ± 3% | 67 ± 8% | 105 ± 2%
3 | COc1cccc(OC)c1O [syringol, 2,6-dimethoxyphenol] | 5.1 ± 0.9 μmol sec-1 μmol-1 GcoA | 3.9 ± 0.2 μmol sec-1 μmol-1 GcoA | 0.54 ± 0.1 μmol sec-1 μmol-1 GcoA | 7.1 ± 0.8% | 56 ± 7% | 14 ± 2% | 7.8 ± 2% | 85 ± 5% | 100 ± 10%

— publication PMC6628648, “Enabling microbial syringol conversion through structure-guided protein engineering” (Proceedings of the National Academy of Sciences of the …, 2019)
